We go through one compound from PubChem BioAssay (NCI).

This assay deals with P388/ADR leukemia. Nature of the assay: NCI tumour cell line growth inhibition, 48 h.

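Results reflect a 48-hour exposure of cells in 96-well plates to compound at five concentrations. TGI marks complete inhibition of growth.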

Regarding `CC[C@@]1(O)C(=O)OCc2c1cc1n(c2=O)Cc2cc3c(N)cccc3nc2-1`, the TGI came out at 375 nM.
